Values of other authors, collected in paper PMC9689602, “Evaluation of ^68Ga-Radiolabeled Peptides for HER2 PET Imaging” (Diagnostics, 2022).
Where two headings read alike, the source gives them in different places.

Legend:
mice = settings: up to 1 g/kg intravenous injection
From the text: One drawback for peptides is their susceptibility to degradation from proteases present within organisms. […] Phosphoramidon can be used as an aid to protect peptides from quick degradation when evaluating our peptides in vivo. […] We are using phosphoramidon as a to ...

HER2 = target: HER2
Protocol: Peptide imaging agents allow for quicker injection to imaging times along with a potential decrease in dose to the patient by using a shorter-lived radioisotope. Radiolabeled peptides are currently used in the clinic for the diagnosis of several cancer types. A widely used example is [^68Ga]DOTATATE (NETSPOT®) which was given FDA approval in 2016 and is used for imaging somatostatin receptor type 2 on neuroendocrine cancer with patient imaging 40 to 90 min after intravenous administration. Several HER2-targeting peptides have been reported which could have the potential to be ...

CC(C)C[C@H](NP(=O)(O)O[C@@H]1O[C@@H](C)[C@H](O)[C@@H](O)[C@H]1O)C(=O)N[C@@H](Cc1c[nH]c2ccccc12)C(=O)O [phosphoramidon, Phosphoramidon]
toxicity in mice (mice): low toxicity and no death

DTFPYLGWWNPNEYRY
Kd (HER2; highest affinity in OBOC library, read-out: affinity (Kd)): 0.0186 µM

HER2 (from UniProt P04626)
Kd (KCCYSL peptide): 30 µM

KCCYSL
Kd (HER2; binding to HER2, read-out: equilibrium dissociation constant): 30 µM
